In patent US20260158092A1, “COMPOSITION COMPRISING AT LEAST ONE CANNABIS EXTRACT FOR USE IN THE TREATMENT OF AN INFLAMMATORY BOWEL DISEASE” (LINNEA SA, priority 2022, published 2026):
Entries after “also recorded” stand apart in the source; their conditions may differ.

Columns and labels:
CXCL-9 = CXCL-9 release by the colonocyte (ELISA); format: cell-based, human; details: IL-1β/IFN-γ, extracts subjected to digestion 100 μg/mL, cannabinoids 8 μM
Procedure: (§1) FIGS. 18A, 18B, 18C and 18D: Effect of the extracts 5 and 6 subjected to intestinal digestion (5d, 6d) and of the cannabinoids (CBD, CBG) on the release of inflammatory mediators (CXCL-9, CXCL-10, CCL-20, IL-15) by the colonocyte. The extracts (100 μg/mL) and the isolated molecules (8 μM) were used in the treatment concomitant with pro-inflammatory stimulation (IL-1β/IFN-γ), arbitrarily placed at 100% . * p<0.05; ** p<0.01; *** p<0.001 (one-way ANOVA test) vs IL-1β/IFN-γ. The data are the mean±SEM of at least three duplicate experiments.
(§2) Consequently, the effect of the extracts at the protein level, especially in the colonocyte, was evaluated by ELISA assays for inflammatory mediators selected starting from the transcriptional data. All mediators are regulated by NF-κB.

CCL-20 = CCL-20 release by the colonocyte (ELISA); format: cell-based, human; details: IL-1β/IFN-γ, extracts subjected to digestion 100 μg/mL, cannabinoids 8 μM
Procedure: as §1, §2

NF-κB = details: human HaCaT keratinocytes; micromolar concentrations; DOI: 10.1002/ptr.6400; cited from earlier work
CXCL10 = CXCL10 secretion in undifferentiated CaCo-2 cells (colonocytes) under pro-inflammatory stimulation; format: cell-based, human; details: cannabinoids 8 μM; for CXCL-10 release: colonocyte, IL-1β/IFN-γ, Phase 3, extracts subjected to digestion 100 μg/mL; for CXCL10 secretion: colonocytes, 10 ng/mL IFNγ and 10 ng/mL IL-1β, 24 hours, extracts 100 μg/mL
Procedure: Firstly, the individual cannabinoids CBD and CBG in undifferentiated cells (colonocytes) were analysed by comparing two different pro-inflammatory mixtures, in order to simplify the pro-inflammatory stimulation and the activation pathways involved. The pro-inflammatory mixture 50 ng/mL TNFα, 10 ng/mL LPS, 50 ng/ml IFNγ and 25 ng/ml IL-1ß mimics an inflammatory disease with a bacterial aetiology and was compared with a less complex mixture, consisting of 10 ng/mL IFNγ and 10 ng/mL IL-1β, deprived of the “bacterial” component, therefore more characteristic of an advanced inflammatory disease.
From the analysis of the pro-inflammatory genes most regulated by the application of the pro-inflammatory mixture, chemokines of the CXC family particularly over-expressed in the enterocyte and colonocyte emerged (FIG. 4).
The used concentration of the cannabinoids (8 μM) corresponds to a quantity equal to […] in the extracts at a concentration of 100 μg/mL.
Based on the results obtained, the effects of the different extracts were evaluated using the pro-inflammatory stimulation consisting of 10 ng/mL IFNγ and 10 ng/mL IL-1β.
as §2

CXCL-9, CXCL-10 = test: Release of inflammatory mediators (CXCL-9, CXCL-10) by the enterocyte; format: cell-based, human; details: enterocyte model; IL-1β/IFN-γ; extracts subjected to digestion 100 μg/mL, cannabinoids 8 μM
Procedure: as §1, with “FIG. 19:” for “FIGS. 18A, 18B, 18C and 18D:”, “CXCL-10)” for “CXCL-10, CCL-20, IL-15)”, “enterocyte.” for “colonocyte.”
The same was highlighted with the use of pure cannabinoids. In analogy with the colonocyte, the release of IL-15 was found not relevant in the enterocyte model, compared to an increase at the transcriptional level.

[1] = system: human microbiota of fecal origin; test: Prebiotic effect: butyric acid (SCFA) production after fecal fermentation; details: for butyric acid (SCFA) production, Mean (n = 4): LC-MS analysis, human microbiota of fecal origin
Procedure: In the last phase of the project, the prebiotic effect of the extracts 5 and 6 towards enteric bacterial strains was evaluated by means of fecal fermentation followed by gene analysis of selected strains.
Following fermentation of the extracts, the level of butyric acid produced by the intestinal flora was measured as an indicator of SCFA production. The reliability of the quantitative analysis was reinforced by two different techniques, namely an ELISA assay and mass spectrometry.
Table 2 below reports the prebiotic effect of the extracts 5 and 6 subjected to intestinal digestion (5d, 6d) and of the cannabinoids (CBD, CBG) in terms of induction of butyric acid (SCFA) production by the human microbiota of fecal origin. The result is expressed in μg/mL (LC-MS analysis).

[2] = system: undifferentiated CaCo-2 cells (colonocytes); test: Cytotoxicity / cell viability (MTT) in colonocytes
Procedure: Firstly, the cytotoxicity of the extracts in the undifferentiated CaCo-2 cells (colonocytes) at 100 μg/mL was evaluated.
In the first phase of the work, the combination of IL-1β (10 ng/ml) and IFN-γ (10 ng/mL) was selected as pro-inflammatory stimulation. During the third experimental phase, the cytotoxicity of the extracts in both colonocytes and enterocytes was compared, using this pro-inflammatory cocktail.

[3] = system: NF-κB transcription factor; test: NF-κB driven transcription, luciferase reporter plasmid in colonocytes; format: cell-based, human; details: 10 ng/mL IFNγ and 10 ng/mL IL-1β, 6 hours, extracts 100 μg/mL, cannabinoids 8 μM
From the text: The use of this promoter allows the effect of the extracts/active molecules on transcription driven by this transcription factor to be observed.

C=C(C)[C@@H]1CCC(C)=C[C@H]1c1c(O)cc(CCCCC)cc1O [CBD, cannabidiol]
CXCL-9 release (CXCL-9): more or less marked inhibitory effect on all the mediators | CCL-20 release (CCL-20): more or less marked inhibitory effect on all the mediators | effect on NF-κB transcription factor (NF-κB): inhibitory effect | CXCL-10 release (CXCL10): more or less marked inhibitory effect on all the mediators | CXCL10 secretion (CXCL10): reduced CXCL10 secretion; also recorded: more active than CBG | release of inflammatory mediators (CXCL-9, CXCL-10): never showed inhibitory effects | butyric acid (SCFA) production, Mean (n = 4) [1]: 212.20 µg/mL | cell viability / cytotoxicity (MTT) ([2]; 10 ng/mL IFNγ and 10 ng/mL IL-1β, 24 hours, extracts 100 μg/mL, cannabinoids 8 μM): slight reduction in cell viability | reduction in viability (MTT) ([2]; IL-1β/IFN-γ, 8 μM): −25%

CCCCCc1cc(O)c(C/C=C(\C)CCC=C(C)C)c(O)c1 [CBG, cannabigerol]
CXCL-9 release (CXCL-9): participate in the inhibitory activity | NF-κB driven transcription [3]: more active than CBD | CXCL-10 release (CXCL10): participate in the inhibitory activity | CXCL10 secretion (CXCL10): reduced CXCL10 secretion | release of inflammatory mediators (CXCL-9, CXCL-10): never showed inhibitory effects | butyric acid (SCFA) production, Mean (n = 4) [1]: 173.54 µg/mL

Inulin
butyric acid (SCFA) production, Mean (n = 4) [1]: 638.87 µg/mL | increase in butyric acid levels ([1]; fecal fermentation): 5 times
